This is an account of results in patent US6022536A, “Combined use of interleukin 10 and cyclosporin for immunosuppression therapy” (Schering Corporation, priority 1996, dated 2000).

What all share (assay type): cell-based, human
Test [1] has as its system T cell proliferation in MLR (PBMC). Nature of the test: one-way primary mixed lymphocyte reaction (MLR), PBMC + mitomycin-treated allogeneic PBMC, [3H]TdR uptake. As to the method: Human blood samples were collected in heparinized vacutainers. To facilitate removal of red blood cells (RBC), 2 ml of 6% dextran in phosphate buffered saline (PBS) (JRH Biosciences, Lenexa, Kans.) was added to each vacutainer, mixed and allowed to stand at room temperature for 30-45 min. The top buffy coat layer was carefully removed and cells centrifuged (300×g, 10 min., 4° C.). The cells were washed 3 times in 15 ml PBS. The peripheral blood mononuclear cells (PBMC) were isolated using a FICOLL-PAQUE (Pharmacia, Piscataway, N.J.) gradient. Ten ml of cells were layered on top of 4 ml FICOLL-PAQUE, centrifuged (1400×g, 20 min., room temperature) and the cells sedimenting at the interface were collected. These PBMC were washed 3 times in PBS, enumerated and resuspended in appropriate media for use in MLR experiments. […] Cell purity determined by staining with CD14 monoclonal antibodies and flow microfluorometric (FMF) analysis was 92% CD14^+. Viability determined by trypan blue exclusion was >95%.
The stimulator PBMAC were treated with 50 μl mitomycin C (Sigma Chemical Co., St. Louis, Mo.) for 20 minutes at 37° C. […] The cells were harvested onto a filter using a 96-well cell harvestor (Skatron, Inc., Sterling, Va.) and counted on a beta counter (Pharmacia LKB Nuclear Inc., Gaithersburg, Md.). […]

The subject of another test is PBMC + B. Nature of the test: MLR with purified normal B cells (CD20+) as stimulators, [3H]TdR uptake. The conditions noted are these: IL-10 200 U/ml; medium 3939 ± 100. As to the method: (§1) The stimulator PBMAC were treated with 50 μl mitomycin C (Sigma Chemical Co., St. Louis, Mo.) for 20 minutes at 37° C. The responder PBMC and the stimulator cells were added to a 96-well microtiter plate (Becton Dickinson, Lincoln Park, N.J.) at 1×10^5 cells per well of each, along with cytokines or antibodies in a total volume of 200 μl in triplets. The cultures were incubated at 37° C. with 5% CO2 in air for 6 days. The cultures were then pulsed with 1 μCi [^3 H]TdR (15.6CI/mmol, NEN, Boston, Mass.) per well for 16 hours. The cells were harvested onto a filter using a 96-well cell harvestor (Skatron, Inc., Sterling, Va.) and counted on a beta counter (Pharmacia LKB Nuclear Inc., Gaithersburg, Md.).
(§2) The supernatant from the MLR was removed and the non-adherent PBMC harvested. The adherent cells were harvested by incubation with 5 mM EDTA at 4° C. for 20 minutes and gently scraped. Cells were combined, centrifuged at 300×g for 10 minutes and washed 3 times in ice-cold PBS. The viable cells were enumerated by Trypan Blue exclusion using a Neubaeur counting chamber, resuspended to 1×10^7 cell/ml in PBS and 100 μl of human IgG (1 mg/ml) was added to each well and incubated on ice. […] Mean channel fluorescence and percent positives for specific markers were determined using LYSIS II software (BDIS). […]

Another test deals with PBMC + JY. The test can be described thus: MLR with JY B cell line as stimulator, [3H]TdR uptake. As to the method: as §1
(§3) To address this question further, the ability of IL-10 to suppress the proliferation in MLR when allogeneic PBMC, purified B cells, monocytes or B cell lines were used as stimulators was studied.

In the next test the test system is PBMC + Daudi. The test can be described thus: MLR with Daudi B cell line as stimulator, [3H]TdR uptake. The conditions noted are these: IL-10 200 U/ml; medium 37357 ± 4497. As to the method:
as §1, §3

A further test relates to PBMC + monocytes. Nature of the test: MLR with purified monocytes (CD14+) as stimulators. To be noted: monocytes (98% CD14+) as stimulators, PBMC as responder. Here is the method: as §1, §2
For test [2], the system named is IFN-γ. Nature of the test: IFN-γ in supernatant of JY-induced MLR, ELISA. The conditions noted are these: 60 hours; IL-10 100 U/ml, CSA 40 ng/ml; PBMC JY alone 5715. Here is the method: (§4) ELISA kits for cytokine production determination were purchased from R&D systems, Minneapolis, Minn.
(§5) To investigate the mechanism by which B cell line-induced MLR resists suppression by IL-10, the effect of IL-10 on cytokine synthesis in this MLR was examined. The presence of IL-2, IFN-γ and TNF-α in supernatants of MLR set up with and without IL-10 ([…]) for 60 hours was determined using ELISA kits.
(§6) ^a The MLR cultures were set up as described above using PBMC (1
(§7) × 10^6 /ml) as responder and mitomycin Ctreated JY cells (5
(§8) × 10^5 cell/) or allogeneic PBMC (5 × 10^5) as
(§9) stimulators in a 24well plate for 60 hours. IL10 was used at 100 U/ml and […]
On the technique in general: ELISA stands for enzyme-linked immunosorbent assay.

In test [3] the test system is IL-2. Nature of the test: IL-2 in supernatant of JY-induced MLR, ELISA. The conditions noted are these: 60 hours; IL-10 100 U/ml, CSA 40 ng/ml; PBMC JY alone 3006. Here is the method:
as §4, §5, §6, §7, §8, §9

Test [4] concerns TNF-α. Nature of the test: TNF-α in supernatant of JY-induced MLR, ELISA. To be noted: 60 hours; IL-10 100 U/ml, CSA 40 ng/ml; PBMC JY alone 154. Here is the method: as §4, §5, §6, §7, §8, §9
Test [5] relates to IFN-γ. Nature of the test: IFN-γ in supernatant of PBMC + PBMC MLR, ELISA. To be noted: 60 hours; IL-10 100 U/ml; detection limit 25 pg/ml. Here is the method: as §4, §5, §6, §7, §8, §9
Test [6] has as its system IL-2. Nature of the test: IL-2 in supernatant of PBMC + PBMC MLR, ELISA. To be noted: 60 hours; IL-10 100 U/ml; detection limit 50 pg/ml. As to the method: as §4, §5, §6, §7, §8, §9
Test [7] concerns TNF-α. Nature of the test: TNF-α in supernatant of PBMC + PBMC MLR, ELISA. To be noted: 60 hours; IL-10 100 U/ml; detection limit 25 pg/ml. Here is the method:
as §4, §5, §6, §7, §8, §9

The test system of test [8] is direct allostimulation of T cells. The test can be described thus: direct allostimulation: one way primary MLR, responder PBMCs depleted of APC. The conditions noted are these: responder PBMCs depleted of APC's; similar with CD4+ or CD8+ responders. Here is the method: (§10) Purified PBMC from human blood were collected in heparinated tubes by FICOLL gradient. The blood was diluted 1:1 with PBS. 30 ml of the diluted blood was laid on top of 20 ml Ficoll in a 50 ml conical tube and spun at 2,000 rpm for 30 minutes. The interface cells were collected and washed 3 times with medium (10% FCS/RPMI).
(§11) The plastic adherent antigen presenting cells (APC) were removed by resuspended PBMC in 1%. human serum (Type AB) at 1×10^6 cells/ml, and incubated at 37° C. for 30 min. The cells which floated were collected and placed in media (10% FCS/RPMI).
(§12) Nylon wool adherent APC were removed as follows:
(§13) A 10 ml syringe was packed with 1.5 g of nylon wool (Polysciences, Inc., Cat. #18369) and autoclaved. A 3-way stopcock and a 22-gauge needle were attached to the syringe, and the column was washed with 50 ml of prewarmed medium. A cell suspension of 5×10^7 cells/ml of […] was prepared in prewarmed medium. Just before adding the cell suspension, the wool was rinsed with 5 ml of prewarmed medium, the column was left to run dry, and the stopcock was closed. Cells (5-10×10^7) were added. The cells were allowed to penetrate the column, and the stopcock was closed. An additional 0.5 ml of medium was added and the column maintained at 37° C. for 45 minutes. […]

Test [9] concerns indirect allostimulation of T cells. Nature of the test: indirect allostimulation: MLR, APC depleted from the stimulator population. The conditions noted are these: APC's depleted from the stimulator population. Here is the method: as §10, §11, §12, §13

By IC50 is commonly meant the concentration needed to halve the response being measured. With “IL-10: human interleukin 10, a cytokine produced by T lymphocytes”, in [1], the IC50 was 8 pM. In [1] (Human IL-10 100 U/ml, 19B1 and rat IgG at 2.5 U g/ml, untreated MLR 5127 ± 935), the “CPM (mean ± SD), 3H-TdR uptake” value is recorded as 643 ± 197 CPM. Besides, the “CPM (M ± SD), 3H-TdR uptake” value turned out to be 182 ± 47 CPM in the test on PBMC + B; 25182 ± 7302 CPM with PBMC + JY (IL-10 200 U/ml, medium 26222 ± 6293); 45763 ± 3089 CPM with PBMC + Daudi. The “suppression of JY-induced MLR” value in the test on PBMC + JY (higher doses of IL-10 up to 1000 U/ml) was “did not suppress”. In addition, the “suppression of MLR-induced proliferation” value with PBMC + monocytes is “strongly suppresses”. Moreover, the “Cytokine concentration IFN-γ” value was 2960 pg/mL in the test on IFN-γ [2] and less than 25 pg/mL with IFN-γ [5]. The results for the “Cytokine concentration IL-2” value in the test on IL-2 [3] and with IL-2 [6] were 1294 pg/mL and less than 50 pg/mL, respectively. Also, the “Cytokine concentration TNF-α” value was 209 pg/mL in the test with TNF-α [4] and less than 25 pg/mL with TNF-α [7]. Also, the “suppression of direct allostimulation, compared with CSA” value in test [8] is “more suppression than CSA”. Also, the “inhibition of indirect allostimulation, compared with CSA” value in test [9] is given as “stronger inhibitor to the indirect allostimulation than CSA”.
